Source: patent US20080312271A1, “AZABENZIMIDAZOLYL COMPOUNDS” (Pfizer Inc., priority 2006, published 2008)
Where two headings read alike, the source gives them in different places.

Biological target: T1, mGluR2 receptor (metabotropic glutamate receptor 2) (Homo sapiens, UniProt Q14416)
T1 construct: expressed in transfected cells
Experiment: mGluR2 Potentiator Screen, FLIPR, EC10-EC20 glutamate challenge
Format: cell-based
Method: Procedure for mGluR2 Potentiator Screen NLB methods EC10-EC20 Challenge Cell Culture and Plating:
Cells used for this screen are HEK cells stably transfected with the mGluR2 receptor (metabotropic glutamate receptor 2) and the Gα15 G protein. Clones were identified by functional activity (FLIPR). Cells are grown in growth media containing: DMEM High Glucose with Glutamine and Na Pyruvate (GIBCO), 10% (v/v) Heat inactivate FBS (GIBCO), G418 500 ug/ml (from 50 mg/ml stock) (GIBCO) and Blasticidin 3 ug/ml (from 5 mg/ml stock made in H2O) (Invitrogen).
2 days before the assay cell are trypsinized with 0.25% trysin/EDTA (GIBCO), spun down at 1000 rpm for 5 minutes, resuspended in growth media and plated on polystyrene 384 well black wall 1 clear bottom poly-D-lysine coated plates at a density of approximately 18,000 cells/well in a volume of 50 μL per well. One day before the assay the growth media is removed from the plates by flicking, and replaced with media containing DMEM High Glucose without Glutamine and Na Pyruvate (GIBCO) and 10% (v/v) dialyzed FBS (GIBCO). The reason for the removal of glutamine the day before the assay is to minimize the amount of glutamate that will be present during the assay, as endogenous glutarnate released from the cells can reduce the fluorescent response and interfere with the FLIPR screen.
FLIPR Methods and Data Analysis:
On the day of the assay, the FLIPR assay is performed using the following methods.
The pH is adjusted to 7.4 with 1 M NaOH. Prepare a 2 mM (approx.) stock solution of Fluo-4,am (Molecular Probes) dye in DMSO-22 μl DMSO per 50 ug vial (440 μL per 1 mg vial). Make a 1 mM (approx.) flou-4, PA working solution per vial by adding 22 μl of 20% pluronic acid (PA), (Molecular Probes) in DMSO to each 50 ug vial (440 μL per 1 mg vial). Prepare a 250 mM Probenecid (Sigma) stock solution by dissolving 0.71 g into 5 ml 1N NaOH and 5 ml assay buffer (for each liter of assay wash buffer)L Make 4 uM (approx.) dye incubation media by adding […] per 11 ml DMEM high glucose without glutamine (220 ml per 1 mg vial). Add 110 μL probenecid stock per 11 ml (2.5 mM final [concentration]). To the dye media add 3 units/ml of glutamic-pyruvic transaminase (GPT, Sigma) and 3 mM Na Pyruvate. The assay has worked with dye concentrations from 2 uM to 8 uM dye as well. To the assay buffer from drug preparation, add 1.83 mls DMSO and 400 μL 15.8% P104 (from New Leads biology) per liter for final concentrations of 0.18% DMSO and 0.006% P104. To the assay buffer for cell washing, add probenecid in the same manner and concentration that was used for the dye media.
Remove growth media from cell plates by flicking. Add 50 μl/well dye solution. Incubate 1 hour at 37° C. and 5% CO2. Remove dye solution and wash 3 times with assay buffer+probenecid (100 μl probenecid stock per 10 ml buffer), leaving 30 μL/well assay buffer. Wait at least 10-15 minutes. Compounds and agonist challenge additions are performed with the FLIPR. The 1st addition is for test compounds, which are added as 15 μL of 4×[concentration] of potentiator. The second 2nd addition is 15 μL of 4×[concentration] of agonist or challenge. This achieves 1× concentration of all compounds only after 2nd addition. The 1st and 2nd additions are performed separately using the FLIPR, which give 2 different data files. Compounds are pretreated at least 30 minutes before agonist addition,
Results are analyzed by dividing the peak fluorescent value of the FLIPR response by the […] to achieve a ratio response. The ratios are then analyzed by curve fitting programs. […] Maximum values for dose response curves (forced fitting) are derived from standards on the plate.
Compound Preparation and Glutamate Challenge:
Compounds are delivered as 10 mM DMSO stocks or as powders, Powders are solubilized in DMSO at 10 mM (as solubility allows). Compounds are sonicated in a heated water bath (35-40° C.) for at least 20 minutes.

[1] = HEK cells stably transfected with mGluR2 and Gα15, FLIPR (Fluo-4), potentiation of an EC10 to EC20 concentration of glutamate, Table 9
[2] = mGluR2 potentiator screen, FLIPR, EC10-EC20 glutamate challenge

T1 sequence (Q14416 19-872, species assumed): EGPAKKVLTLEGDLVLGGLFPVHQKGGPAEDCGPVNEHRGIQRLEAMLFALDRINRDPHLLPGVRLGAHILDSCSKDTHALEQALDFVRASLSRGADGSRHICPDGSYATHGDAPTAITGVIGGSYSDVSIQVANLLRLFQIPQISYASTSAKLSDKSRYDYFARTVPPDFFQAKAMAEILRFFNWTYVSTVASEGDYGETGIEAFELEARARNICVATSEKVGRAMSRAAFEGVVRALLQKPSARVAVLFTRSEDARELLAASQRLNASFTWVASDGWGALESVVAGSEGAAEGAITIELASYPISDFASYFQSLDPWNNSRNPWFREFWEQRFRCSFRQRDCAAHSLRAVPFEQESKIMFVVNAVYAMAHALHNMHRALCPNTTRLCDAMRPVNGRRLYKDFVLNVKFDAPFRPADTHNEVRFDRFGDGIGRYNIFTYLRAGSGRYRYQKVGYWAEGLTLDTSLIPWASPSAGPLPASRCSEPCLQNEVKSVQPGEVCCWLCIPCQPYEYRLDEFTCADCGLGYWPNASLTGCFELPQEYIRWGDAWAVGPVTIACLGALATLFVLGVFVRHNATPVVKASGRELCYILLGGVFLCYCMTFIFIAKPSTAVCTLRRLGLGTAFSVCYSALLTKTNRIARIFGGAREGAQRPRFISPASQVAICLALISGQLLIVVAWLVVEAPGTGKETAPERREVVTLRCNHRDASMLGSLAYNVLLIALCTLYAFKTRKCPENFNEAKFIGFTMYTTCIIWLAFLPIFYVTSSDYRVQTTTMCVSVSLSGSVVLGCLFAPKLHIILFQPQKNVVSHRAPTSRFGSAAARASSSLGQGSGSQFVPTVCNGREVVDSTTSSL

For `COc1ccc(Cl)cc1C1CCN(Cc2nc3ncccc3n2C)CC1` [compound 43], which EC50 is on record?
Its EC50 is 203 nM.

How did the EC50 turn out when `C[C@@H]1CN(Cc2nc3cnccc3n2C)CC[C@@H]1c1ccc(Cl)cc1F` (relative stereo) [compound 116] was run?
The EC50 was 49.8 nM.

`C[C@@H]1CN(Cc2nc3ncccc3n2C)CC[C@@H]1c1ccc(OC(F)(F)F)cc1` (relative stereo) [compound 157] was tested. Which EC50 did it give?
Its EC50 is 277 nM.

With `Cc1cc(OC(F)(F)F)ccc1[C@H]1CCN(Cc2nc3cnccc3n2C)C[C@H]1C` (relative stereo) [compound 165] as the compound, how does the EC50 read?
Its EC50 is 514 nM.

Which EC50 does the source give for `Cc1ccc([C@H]2CCN(Cc3nc4cnccc4n3C)C[C@H]2C)c(Cl)c1` (relative stereo) [compound 209] here?
Its EC50 is 159 nM.

With `C[C@@H]1CN(Cc2nc3ncccc3n2C)CC[C@@H]1c1ccc(F)c(Cl)c1` (relative stereo) [compound 111] as the compound, how does the EC50 read?
The EC50 was 203 nM.

`Cn1c(CN2CCC(c3ccccc3C(F)(F)F)CC2)nc2cnccc21` [compound 48] was tested. Which EC50 did it give?
The EC50 was 481 nM.

How did the EC50 turn out when `C[C@@H]1CN(Cc2nc3ncccc3n2C)CC[C@@H]1c1ccc(OC(F)F)cc1Cl` (relative stereo) [compound 203] was run?
The EC50 was 43.6 nM.

With `Cc1ccc(C)c(C2CCN(Cc3nc4ncccc4n3C)CC2)c1` [compound 61] as the compound, how does the EC50 read?
Its EC50 is 290 nM.

`C[C@@H]1CN(Cc2nc3ncccc3n2C)CC[C@@H]1c1ccc(OC(F)F)cc1` (single isomer, unassigned) [compound 223] was tested. Which EC50 did it give?
Its EC50 is greater than 129 nM.

`Cn1c(CN2CCC(c3ccccc3C(F)(F)F)CC2)nc2cccnc21` [compound 50] was tested. Which EC50 did it give?
Its EC50 is 406 nM.

For `C[C@@H]1CN(Cc2nc3cnccc3n2C)CC[C@@H]1c1ccc(C(F)(F)F)cc1Cl` (relative stereo) [compound 152], which EC50 is on record?
Its EC50 is 66.3 nM.

For `C[C@@H]1CN(Cc2nc3cnccc3n2C)CC[C@@H]1c1ccc(OC(F)(F)F)cc1` (relative stereo) [compound 158], which EC50 is on record?
Its EC50 is 262 nM.

With `C[C@@H]1CN(Cc2nc3cnccc3n2C)CC[C@@H]1c1ccc(F)cc1F` (relative stereo) [compound 125] as the compound, how does the EC50 read?
Its EC50 is 10300 nM.

`COc1cc(F)ccc1[C@H]1CCN(Cc2nc3nccc4c3n2CCC4)C[C@H]1C` (relative stereo) [Example 134, 2-{[Cis-4-(4-fluoro-2-methoxyphenyl)-3-methylpiperidin-1-yl]methyl}-5,6-dihydro-4H-imidazo[4,5,1-ij]-1,7-naphthyridine] was tested. Which EC50 did it give?
The EC50 was 30.2 nM.

And the EC50 [1]?
Its EC50 is 30.2 nM.

`C[C@@H]1CN(Cc2nc3ncccc3n2C)CC[C@@H]1c1ccc(OC(F)(F)F)cc1Cl` (single isomer, unassigned) [compound 256] was tested. Which EC50 [2] did it give?
Its EC50 is greater than 704 nM.

How did the EC50 turn out when `C[C@@H]1CN(Cc2nc3ncccc3n2C)CC[C@@H]1c1ccc(Cl)cc1C(F)(F)F` (relative stereo) [compound 207] was run?
Its EC50 is 108 nM.

How did the EC50 turn out when `C[C@@H]1CN(Cc2nc3ncccc3n2C)CC[C@@H]1c1ccc(C(F)(F)F)cc1F` (single isomer, unassigned) [compound 138] was run?
Its EC50 is less than 9.25 nM.

`Cn1c(CN2CCC(c3ccc(Cl)cc3F)CC2)nc2ncccc21` [compound 110] was tested. Which EC50 did it give?
The EC50 was 27.1 nM.

`COc1cc(F)ccc1[C@H]1CCN(Cc2nc3cnccc3n2C)C[C@H]1C` (single isomer, unassigned) [compound 260] was tested. Which EC50 [2] did it give?
Its EC50 is 125 nM.

How did the EC50 turn out when `COc1ccc(C(F)(F)F)cc1C1CCN(Cc2nc3ncccc3n2C)CC1` [compound 55] was run?
Its EC50 is 211 nM.

How did the EC50 [2] turn out when `Cn1c(CN2CCC(c3ccc(C(F)(F)F)cc3F)CC2)nc2ncccc21` [compound 268] was run?
Its EC50 is 12.7 nM.

How did the EC50 turn out when `Cn1c(CN2CCC(c3ccc(C(F)(F)F)cc3)CC2)nc2cnccc21` [compound 47] was run?
The EC50 was 168 nM.

Which EC50 does the source give for `Cn1c(CN2CCC(c3ccc(C(F)(F)F)cc3)C(O)C2)nc2ncccc21` (stereo not drawn) [compound 86] here?
Its EC50 is greater than 2750 nM.

Which EC50 does the source give for `C[C@@H]1CN(Cc2nc3ncccc3n2C)CC[C@@H]1c1ccc(C(F)(F)F)cc1` (single isomer, unassigned) [compound 119] here?
The EC50 was greater than 1990 nM.

With `C[C@@H]1CN(Cc2nc3ncccc3n2C)CC[C@@H]1c1ccc(C(F)(F)F)c(Cl)c1` (relative stereo) [compound 234] as the compound, how does the EC50 [2] read?
Its EC50 is 101 nM.

With `Cn1c(CN2CCC(c3ccc(Cl)cc3)CC2)nc2ncccc21` [compound 80] as the compound, how does the EC50 read?
The EC50 was greater than 9110 nM.

How did the EC50 turn out when `CC(C)Oc1ccc([C@H]2CCN(Cc3nc4ncccc4n3C)C[C@H]2C)cc1F` (relative stereo) [compound 182] was run?
Its EC50 is 577 nM.

`CC(C)Oc1ccc(C2CCN(Cc3nc4ncccc4n3C)CC2)c(F)c1` [compound 262] was tested. Which EC50 [2] did it give?
The EC50 was 127 nM.

Which EC50 [2] does the source give for `C[C@@H]1CN(Cc2nc3cnccc3n2C)CC[C@@H]1c1ccc(OC(F)(F)F)cc1Cl` (single isomer, unassigned) [compound 254] here?
The EC50 was 86.6 nM.

Which EC50 does the source give for `C[C@@H]1CN(Cc2nc3cnccc3n2C)CC[C@@H]1c1ccccc1F` (single isomer, unassigned) [compound 117] here?
Its EC50 is greater than 359 nM.

How did the EC50 turn out when `Cn1c(CN2CCC(c3ccc(C(F)(F)F)cc3)C(F)C2)nc2ncccc21` (stereo not drawn) [compound 100] was run?
The EC50 was 315 nM.

For `CCCOc1ccc(Cl)cc1C1CCN(Cc2nc3ncccc3n2C)CC1` [compound 38], which EC50 is on record?
Its EC50 is 392 nM.

For `COc1ccc([C@H]2CCN(Cc3nc4ncccc4n3C)C[C@H]2C)c(C(F)(F)F)c1` (relative stereo) [compound 173], which EC50 is on record?
Its EC50 is 214 nM.

What does the source list for `C[C@@H]1CN(Cc2nc3nccc4c3n2CCC4)CC[C@@H]1c1ccc(F)c(Cl)c1` (relative stereo) [Example 128, 2-{[Cis-4-(3-chloro-4-fluorophenyl)-3-methylpiperidin-1-yl]methyl}-5,6-dihydro-4H-imidazo[4,5,1-ij]-1,7-naphthyridine]?
EC50: 134 nM; EC50 [1]: 134 nM

Which EC50 [2] does the source give for `COc1ccc(C2CCN(Cc3nc4ncccc4n3C)CC2)c(C(F)(F)F)c1` [compound 271] here?
The EC50 was 494 nM.

With `CC(C)Oc1ccc([C@H]2CCN(Cc3nc4ncccc4n3C)C[C@H]2C)c(Cl)c1` (single isomer, unassigned) [compound 222] as the compound, how does the EC50 read?
Its EC50 is greater than 603 nM.

How did the EC50 [2] turn out when `Cn1c(CN2CCC(c3ccc(C(F)(F)F)cc3Cl)CC2)nc2ncccc21` [compound 272] was run?
The EC50 was 24.1 nM.

How did the EC50 turn out when `Cn1c(CN2CCC(c3cccc(Cl)c3)CC2)nc2ncccc21` [compound 78] was run?
Its EC50 is 880 nM.

`C[C@@H]1CN(Cc2nc3cnccc3n2C)CC[C@@H]1c1ccc(C(F)(F)F)c(F)c1` (relative stereo) [compound 148] was tested. Which EC50 did it give?
Its EC50 is 71.4 nM.

With `CC(C)Oc1ccc([C@H]2CCN(Cc3nc4ncccc4n3C)C[C@H]2C)c(Cl)c1` (single isomer, unassigned) [compound 221] as the compound, how does the EC50 read?
The EC50 was 77.8 nM.

With `C[C@@H]1CN(Cc2nc3cnccc3n2C)CC[C@@H]1c1ccc(OC(F)(F)F)c(Cl)c1` (relative stereo) [compound 212] as the compound, how does the EC50 read?
Its EC50 is 209 nM.

With `C[C@@H]1CN(Cc2nc3cnccc3n2C)CC[C@@H]1c1ccc(OC(F)F)cc1` (relative stereo) [compound 178] as the compound, how does the EC50 read?
The EC50 was greater than 1350 nM.

For `Cc1cc(OC(F)(F)F)ccc1[C@H]1CCN(Cc2nc3ncccc3n2C)C[C@H]1C` (relative stereo) [compound 164], which EC50 is on record?
Its EC50 is less than 74.3 nM.

With `Cn1c(CN2CCC(c3cc(Cl)ccc3F)CC2)nc2ncccc21` [compound 75] as the compound, how does the EC50 read?
Its EC50 is 324 nM.

With `Cn1c(CN2CCC(c3ccc(OC(F)(F)F)cc3)CC2)nc2ncccc21` [compound 231] as the compound, how does the EC50 [2] read?
The EC50 was 84.5 nM.

For `C[C@@H]1CN(Cc2nc3ncccc3n2C)CC[C@@H]1c1ccc(F)c(C(F)(F)F)c1` (relative stereo) [compound 197], which EC50 is on record?
Its EC50 is 128 nM.

With `COc1cc(OC(F)(F)F)ccc1[C@H]1CCN(Cc2nc3cnccc3n2C)C[C@H]1C` (relative stereo) [compound 214] as the compound, how does the EC50 read?
The EC50 was 124 nM.

Which EC50 does the source give for `COc1cc(OC(F)(F)F)ccc1[C@H]1CCN(Cc2nc3ncccc3n2C)C[C@H]1C` (relative stereo) [compound 215] here?
Its EC50 is 59.4 nM.
